From US20090176776A1, “SMALL MOLECULE INHIBITORS OF HIV-1 CAPSID ASSEMBLY” (UNIVERSITY OF ALABAMA AT BIRMINGHAM, priority 2005, published 2009) come the findings set out here.

The test system of one data set is HIV-1YU2. Briefly: Anti-HIV assay (multiple round), luciferase expression in Luc-M7 cells. The class given is cell-based. The note with it: Luc-M7 cells infected with HIV-1YU2, 6 days, Bright-Glo. On the procedure: (§1) Anti-HIV Assays (Multiple Round). The inhibitory effects of the tested compounds on HIV-1YU2 replication were determined by the level of luciferase expression after 6 days of infection using Bright-Glo assay (Promega). An amount of 1.5×10^4 Luc-M7 (a gift from Ned Landau) cells per ml were infected with HIV-1YU2 at a multiplicity of infection (MOI) of 3. The HIV-1 infected ([…] compound) or mock-infected (0-300 μM compound) Luc-M7 cells were placed in 96-well culture plates (100 μl/well) with 100 μl of various concentrations of the compounds with 20 μg/ml DEAE Dextran in triplicate and incubated at 37° C. under 5% CO2 at 100% humidity. After 6 days, cell viability was quantified by Cell-Titer Glo assay (Promega). […] On day 5 cell viability was determined in the mock-infected cells. FIGS. 12-18 show the anti-HIV assays for the examples of chemical compounds used according to the invention. After in-vitro assay, the chemical compounds in FIGS. 12-18 were selected for screening for cell viability and toxicity. Jurkat cells assay was used as screening assay. […] After five days, GFP expression was read. Cell viability was monitored with Alamar Blue assay. Luc M7 assay was designed to measure inhibitory activity of the chemical compounds to viral replication. After infection of cells with YU2 virus, plate cells in 96-well plate in the presence of six concentration of compounds in DMSO. At day 6, the number of cells in wells were read with Cell Titer Glo kit or by counting the number of cells infected with Bright Glo kit. 293T cells assay was designed to determine the toxicity. 293T cells were transfected with NL43. After four hours, transfected cells were plated in 96-well plate in DMSO and 2 μM Indinavir. 72 hours later, viral supernatant was collected and plated on J[…].

The subject of another data set is Luc-M7 cells. Briefly: Cell viability of Luc-M7 cells (Cell-Titer Glo). The class given is cell-based. Details: unit: μM. The note with it: mock-infected Luc-M7 cells, 6 days. On the procedure:
as §1

For another data set, the system named is HIV-1NL43. The data set can be described thus: Anti-HIV assay (single round), infectivity of virus produced, titered on TZM-b1 cells. The class given is cell-based. The note with it: virus from NL43-transfected 293T cells, 72 hours; luciferase after two days; read-out: Infectivity 50%. On the procedure:
(§2) Anti-HIV Assays (Single Round). The inhibitory effect of the compounds on virus production and infectivity were determined by measuring the level of p24 produced in the presence of various concentrations of compounds from HEK-293 cells transiently transfected with pNL43 and by titering the virus on TZM-b1 cells. Briefly, 2.5×10^5 HEK-293 cells/ml were transfected with pNL43 using FuGene 6. Four hours post transfection the cells were plated in 96-well plates containing 100 μl of various concentrations of compounds (0-75 μM or 0-300 μM for mock transfected cells) in triplicate. At 72-hours post transfection virus supernatant was collected and stored at −80° C. until analysis. The level of p24 produced at each compound concentration was determined relative to the level produced in the presence of the DMSO only controls using HIV-1 p24 enzyme-linked immunosorbent assay (ELISA) (Beckman-Coulter). To determine the infectivity of the virus produced TZM-b1 cells were plated at 1×10^5 cells/ml in 100 μL in 96-well plates overnight. The next day, the media was replaced with 75 μL DMEM supplemented with 1% FBS, 1× PSG and 40 μg/ml DEAE Dextran and 25 μL of viral supernatant from the HEK-293 cells was added to each well. Three hours later 100 μL of DMEM with 7% FBS was added to each well. Two days after infection the cells were lysed and the level of luciferase expression was determined using the Bright-Glo assay.
(§3) FIGS. 12-18 show the anti-HIV assays for the examples of chemical compounds used according to the invention. After in-vitro assay, the chemical compounds in FIGS. 12-18 were selected for screening for cell viability and toxicity. Jurkat cells assay was used as screening assay. In Jurkat cells assay, JLTRG-R5 cells were used as Indicator cells and MOLT4 cells as Producer cells of NL43 and BAL virus. 96 chemical compounds were plated at seven different concentration from 75 μM to 0 μM at three-fold serial dilutions in 384 well plate. After five days, GFP expression was read. Cell viability was monitored with Alamar Blue assay. Luc M7 assay was designed to measure inhibitory activity of the chemical compounds to viral replication. After infection of cells with YU2 virus, plate cells in 96-well plate in the presence of six concentration of compounds in DMSO. At day 6, the number of cells in wells were read with Cell Titer Glo kit or by counting the number of cells infected with Bright Glo kit. 293T cells assay was designed to determine the toxicity. 293T cells were transfected with NL43. After four hours, transfected cells were plated in 96-well plate in DMSO and 2 μM Indinavir. 72 hours later, viral supernatant was collected and plated on JC53BL. Luciferase expression was measure after two days and p24 analysis was conducted with 1:1000 and 1:2000 dilutions.

A further data set concerns 293T cells. Briefly: Toxicity in 293T cells. The class given is cell-based, human. Set-up: unit not given beside the values. How it is done: as §2, §3
Data set [1] addresses C-terminal domain of the CA protein (Human immunodeficiency virus type 1 group M subtype B, UniProt P12493). To be noted: 1 mM compound, 0.02 mM protein domain; peaks at 5.5 ppm and 8 ppm. From the text: (§4) The STD-NMR spectroscopy is an extremely powerful and sensitive technique to detect and identify the binding of low molecular weight (MW) ligands specific to a target protein of interest. […] This technique exploits the transfer of radio frequency saturation of the proton magnetization on the large protein to the low MW ligand during the brief period it resides within the binding pocket of the protein, before it is released into solution. It also exploits the large differences in the correlation times of the interacting molecules.

In data set [2] the target is N-terminal domain of the CA protein (Human immunodeficiency virus type 1 group M subtype B, UniProt P12493). To be noted: 1 mM compound; peaks at 5.5 ppm and 8 ppm.
From the text: as §4

pIC50: −log10 of the molar value.

Consider `Cc1ncc(C[n+]2csc(CCOC(=O)C3C4CC5CC(C4)CC3C5)c2C)c(N)n1.Cl.[Cl-]` (stereo not drawn) [Compound 26], for which the pIC50 with HIV-1YU2 is 5.34; with HIV-1NL43, 4.75. In the data set with Luc-M7 cells, this compound registered a TC50 of 70.4. In the data set with 293T cells, this compound showed a TC50% of 193. In data set [1], the “binding to the CTD domain (STD-NMR)” value was “binding of the chemical compound 26 to the CTD domain is clearly indicated”. Moreover, the “binding to the NTD domain (STD-NMR)” value in data set [2] is “binds to the NTD domain”.
